{"source": "patent US12479888B2", "about": "“Polypeptide and application thereof” (HDL SOLUTIONS OTTAWA, priority 2019, dated 2025)", "assay_type_in_all_cases": "in vivo", "key": {"[1]": {"test_system": "apoE knockout mice", "assay": "Oil Red O staining of liver cryostat sections, area of neutral lipids", "details": "HFD+21H21 vs HFD, 50 μg tail vein once every four days, 10 injections, p value=0.0004", "from_the_text": "(§1) Male apoE knockout mice (C57BL/6J) at age of 10 weeks were purchased from GemPharmatech, Nanjing, Jiangsu, China. The mice were fed with low fat diet [SPF growth and reproduction feed for rats and mice: 12.95% fat (wt/wt), 24.02% protein (wt/wt)] from Beijing KeaoXieli Feed Co. Ltd., Beijing, China in a pathogen-free facility for two weeks, and then divided into the following three groups (8 mice each group): (a) the control group was fed low fat diet, referred to as Chow; (b) the high-fat group was fed high-fat diet (HFD) [21% fat (wt/wt), 0.15% (wt/wt) cholesterol, 20% protein (wt/wt), Research Diets, New Brunswick, NJ, D12079B], referred to as the HFD; (c) the treatment group was fed high-fat diet plus the injection through tail vein with polypeptide 21H21 (50 μg/200μL 1× PBS) once every four days, referred to as the HFD+21H21. The total injection was 10 times. One day after the last injection, the mice were anesthetized and euthanized in carbon dioxide, and then blood, liver and aorta were collected. During the period of the experiment, each group of mice was weighed. All animal experiments were carried out in accordance with the animal management guidelines of the People's Republic of China.\nLiver tissue collected in Experimental Example 1 was embedded in OCT compound (Sakura Tissue-Tek) and then stored at −80° C. […]"}, "[2]": {"assay": "Body weight of LDLR-deficient mice on high-fat diet", "from_the_text": "(§2) Male LDLR-deficient mice (C57BL/6-Ldlrem1Cd82/Nju) at age of 11 weeks were purchased fromGemPharmatech, Nanjing, Jiangsu, China. The mice were fed with low fat diet [SPF growth and reproduction feed for rats and mice: 12.95% fat (wt/wt), 24.02% protein (wt/wt)] from Beijing KeaoXieli Feed Co. Ltd., Beijing, China in a pathogen-free facility for two weeks, and then divided into the following three groups (8 mice each group): (a) the control group was fed low fat diet, referred to as Chow; (b) the high-fat group was fed high-fat diet (HFD) [21% fat (wt/wt), 0.15% (wt/wt) cholesterol, 20% protein (wt/wt), Research Diets, New Brunswick, NJ, D12079B], referred to as the HFD; (c) the treatment group was fed high-fat diet plus the injection through tail vein with polypeptide 21H21(50μg/200μL lx PBS) once every three days, referred to as the HFD+21H21. The total injection was 10 times. One day after the last injection, the mice were anesthetized and euthanized in carbon dioxide, and then blood, liver and aorta werecollected. During the period of the experiment, each group of mice was weighed. All animal experiments were carried out in accordance with the animal management guidelines of the People's Republic of China."}, "[3]": {"assay": "Body weight of apoE knockout mice on high-fat diet", "from_the_text": "as §1"}, "[4]": {"test_system": "LDLR-deficient mice", "assay": "Oil Red O staining of full-length aorta, area of neutral lipids", "details": "HFD+21H21 vs HFD, 50 μg tail vein once every three days, 10 injections", "from_the_text": "as §2\nAorta separation in Experimental Example 4 was carried out as Tangirala RK, et al. (Circulation. 1999; 100: 1816-1822). […]"}, "[5]": {"test_system": "apoE knockout mice", "assay": "Oil Red O staining of aortic root cryostat sections, area of neutral lipids", "details": "HFD+21H21 vs HFD, 50 μg tail vein once every four days, 10 injections", "from_the_text": "as §1\nThe upper half of the heart together with the aortic root tissue collected in Experimental Example 1 was embedded in OCT compound (Sakura Tissue-Tek) and stored at −80° C. […]"}, "[6]": {"test_system": "apoE knockout mice", "assay": "Oil Red O staining of full-length aorta, area of neutral lipids", "details": "HFD+21H21 vs HFD, 50 μg tail vein once every four days, 10 injections, p value=4.40108E-05", "from_the_text": "as §1\nAorta separation in Experimental Example 1 was carried out as Tangirala R K, et al. (Circulation. 1999; 100: 1816-1822). […]"}}, "note": "Where “and” joins values, the source holds several entries; their conditions need not be identical. Equal entries are not always repeated. Ends that are not written are not given here. * marks the point of attachment. Stearoyl = CCCCCCCCCCCCCCCCCC(=O)*"}
{"substance": "21H21: Stearic acid conjugated to the N-terminus of polypeptide SEQ ID NO: 3 (FAYLQDVVEQAIIRVLTGTEK) (Stearoyl-FAYLQDVVEQAIIRVLTGTEK)", "values": [{"measurement": "Prevention of accumulation of neutral lipids in liver tissue caused by high-fat diet", "setting": "[1]", "value": 53, "unit": "%"}, {"measurement": "Percentage of weight gain during experiment", "setting": "[2]; HFD + 21H21 50 μg tail vein once every three days", "value": 10.02, "unit": "%"}, {"measurement": "Average body weight after experiment", "setting": "[2]; HFD + 21H21 50 μg tail vein once every three days, 10 injections", "value": "29.2 ± 0.02", "unit": "g"}, {"measurement": "Average body weight before experiment", "setting": "[2]; HFD + 21H21 group (n = 8), baseline", "value": "26.54 ± 0.02", "unit": "g"}, {"measurement": "Percentage of weight gain offset by 21H21", "setting": "[2]; HFD + 21H21 vs HFD", "value": "29% and 29.17%"}, {"measurement": "Effect on weight gain by high-fat diet", "setting": "[3]; 50 μg per mouse i.v. once every four days", "value": "able to offset weight gain"}, {"measurement": "Percentage decrease of body weight (HFD + 21H21 vs HFD)", "setting": "[3]; Day 88", "value": 12.82, "unit": "%"}, {"measurement": "Average body weight per mouse", "setting": "[3]; Day 88, HFD + 21H21 50 μg tail vein once every four days", "value": 24.38, "unit": "g"}, {"measurement": "Percentage decrease of body weight (HFD + 21H21 vs HFD)", "setting": "[3]; Day 97", "value": 14.46, "unit": "%"}, {"measurement": "Average body weight per mouse", "setting": "[3]; Day 97, HFD + 21H21 50 μg tail vein once every four days", "value": 24.83, "unit": "g"}, {"measurement": "Percentage decrease of body weight (HFD + 21H21 vs HFD)", "setting": "[3]; Day 105", "value": 15.79, "unit": "%"}, {"measurement": "Average body weight per mouse", "setting": "[3]; Day 105, HFD + 21H21 50 μg tail vein once every four days", "value": 25.21, "unit": "g"}, {"measurement": "Percentage decrease of body weight (HFD + 21H21 vs HFD)", "setting": "[3]; Day 110", "value": 13.82, "unit": "%"}, {"measurement": "Average body weight per mouse", "setting": "[3]; Day 110, HFD + 21H21 50 μg tail vein once every four days", "value": 25.61, "unit": "g"}, {"measurement": "Percentage decrease of body weight (HFD + 21H21 vs HFD)", "setting": "[3]; Day 119", "value": 12.24, "unit": "%"}, {"measurement": "Average body weight per mouse", "setting": "[3]; Day 119, HFD + 21H21 50 μg tail vein once every four days", "value": 26.63, "unit": "g"}, {"measurement": "Percentage decrease of body weight (HFD + 21H21 vs HFD)", "setting": "[3]; Day 123", "value": 15.04, "unit": "%"}, {"measurement": "Average body weight per mouse", "setting": "[3]; Day 123, HFD + 21H21 50 μg tail vein once every four days", "value": 26.76, "unit": "g"}, {"measurement": "Prevention of atherosclerotic lesion of full-length aorta", "setting": "[4]", "value": 94, "unit": "%"}, {"measurement": "Prevention of accumulation of neutral lipids at the aortic root caused by high-fat diet", "setting": "[5]", "value": 35, "unit": "%"}, {"measurement": "Prevention of atherosclerotic lesion of full-length aorta", "setting": "[6]", "value": 48, "unit": "%"}]}
